Consider 51 compounds from PubChem BioAssay AID1996.

SMILES strings stand for the structures. Converted amounts (≈) assume the structure as drawn. Where only a bound is given, the exact number is not on record here.

The conditions of this series: buffer; pH 7.4; 200.0 µM.
As a reminder, the solubility (kinetic) is the concentration staying in solution when a stock, usually in DMSO, is diluted into the medium. As for `CCOC(=O)Cc1csc(SCC(=O)N2CCN(c3ccccc3)CC2)n1`, the kinetic solubility is greater than 60.8 µg/mL.
`O=C(NCCN1CCOCC1)c1cc([N+](=O)[O-])ccc1Cl` yielded a solubility (kinetic) greater than 47.1 µg/mL.
Then `Cc1ccc(OCCCCCN2CCOCC2)cc1`, with 32.3 µg/mL (≈ 123 µM); and `COc1ccc(CNC(=O)CSc2nccn(-c3ccc(F)c(F)c3)c2=O)cc1`, with 12.4 µg/mL (≈ 29.7 µM); and `Cl.O=C1CC[C@@]2(O)[C@H]3Cc4ccc(O)c5c4[C@@]2(CCN3CC2CC2)[C@H]1O5`, with greater than 56.7 µg/mL.
As to `O=c1c(N2CCOCC2)c(N2CCOCC2)c1=O`, the kinetic solubility is greater than 37.8 µg/mL.
Then `O=C1COc2ccc(S(=O)(=O)N3CCCCCC3)cc2N1`, with greater than 46.6 µg/mL; and `CCNC(=O)c1cccc(NC(=O)C2CC(=O)N(CCc3ccccc3)C2)c1` (stereo unspecified), with greater than 56.9 µg/mL; and `COc1ccc(Cl)cc1NC(=O)CN(C)C(=O)C1COc2ccccc2O1` (stereo unspecified), with 43.1 µg/mL (≈ 110 µM).
`O=C(Nc1ccc(F)cc1)NC1CCCc2ccccc21` (stereo unspecified) showed a solubility (kinetic) of 0.7 µg/mL (≈ 2.46 µM).
Take `Cc1sc2nc(-c3ccc(Br)cc3)oc(=O)c2c1C`: the kinetic solubility was less than 0.7 µg/mL.
For `O=C(CN1C2CCCC1CC(NC(=O)c1ccccc1)C2)NC1CC1` (stereo unspecified) the value was greater than 51.2 µg/mL; for `CCOC(=O)C(Cc1ccccc1)C(=O)NCc1cccnc1` (stereo unspecified), greater than 46.9 µg/mL.
Regarding `COc1cc(N)c(Cl)cc1C(=O)OCC(=O)NCc1cccs1`, the solubility (kinetic) is 20.6 µg/mL (≈ 58.1 µM).
`O=[N+]([O-])c1ccc(N2CCCC2)nc1N1CCCC1`: the kinetic solubility was 21.4 µg/mL (≈ 81.6 µM).
For `O=c1c2ccccc2sn1-c1nccs1` the value was 1.4 µg/mL (≈ 5.98 µM).
Then `O=C(COC(=O)C1CC1)Nc1ccc(S(=O)(=O)N2CCOCC2)cc1`, with greater than 55.3 µg/mL.
For `Cc1ccc(NC(=O)C2CC2c2ccccc2)c([N+](=O)[O-])c1` (stereo unspecified) the value was 3.5 µg/mL (≈ 11.8 µM).
In turn, `C=C(C)CN(CC)C(=O)CC1C(=O)NCCN1CC(C)(C)C` (stereo unspecified) gave a solubility (kinetic) of 39.6 µg/mL (≈ 128 µM).
For `Cc1cc(C)c(S(=O)(=O)c2cc(F)ccc2C)c(=O)[nH]1` the value was 13.3 µg/mL (≈ 45 µM).
For `CC(NC(=O)c1ccco1)C(=O)OC(C)C(=O)NCc1ccccc1` (stereo unspecified) the value was 46.3 µg/mL (≈ 134 µM); for `CC(OC(=O)C1CC1)C(=O)Nc1cc(Cl)cc(Cl)c1` (stereo unspecified), greater than 45.3 µg/mL; for `CC(NC(=O)CSc1ccccc1C(=O)O)C1CC2CCC1C2` (stereo unspecified), greater than 50 µg/mL.
Compound `CN(C)CC[n+]1ccc(C(=O)c2ccccc2)cc1.Cl.[Cl-]` yielded a kinetic solubility greater than 49.1 µg/mL.
As to `Cc1cnc(C(=O)OCC(=O)NC(=O)c2ccccc2)cn1`, the solubility (kinetic) is greater than 44.9 µg/mL.
As to `CCC(C(=O)NCc1cccnc1)c1ccccc1` (stereo unspecified), the solubility (kinetic) is greater than 38.1 µg/mL.
For `CCc1ccc(NS(=O)(=O)c2ccc3c(c2)oc(=O)n3C)cc1` the value was 2.1 µg/mL (≈ 6.32 µM); for `Cc1cc(NC(=O)COC(=O)c2ccccc2[N+](=O)[O-])no1`, 21.3 µg/mL (≈ 69.8 µM); for `CCN(C(=O)c1cc(Cl)ccc1Cl)C1CCS(=O)(=O)C1` (stereo unspecified), greater than 50.4 µg/mL.
For `Cc1cccc(OCC(=O)NCc2ccccc2)c1` the value was greater than 38.3 µg/mL; for `COc1ccc(CCC(=O)Nc2ncc(C)s2)cc1OC`, 1.8 µg/mL (≈ 5.87 µM).
The compound `Cc1cccc(SCC(=O)Nc2ccc3c(c2)OCCO3)c1` yielded a kinetic solubility of 36.4 µg/mL (≈ 115 µM).
For `CC(=O)Nc1cc2nc(C)n(Cc3ccc([N+](=O)[O-])cc3)c2nc1C` the value was greater than 50.9 µg/mL.
Then `O=C(/C=C/c1cccnc1)c1ccc([N+](=O)[O-])cc1`, with 9.8 µg/mL (≈ 38.5 µM); and `N#Cc1ccc(OCC(=O)NCCCn2ccnc2)cc1`, with greater than 42.6 µg/mL; and `CCOc1ccc(C(=O)Cn2cnc3ccccc3c2=O)cc1`, with 8.5 µg/mL (≈ 27.6 µM).
Take `CN(c1ccc(C(=O)N2CCCCC2)cc1)S(=O)(=O)c1cccs1`: the solubility (kinetic) turned out to be 52.7 µg/mL (≈ 145 µM).
Then `C=CCNC(=S)/N=c1/ccccn1CCC`, with 35.1 µg/mL (≈ 149 µM); and `CC(C(N)=O)N1C(=O)NC2(CCCc3ccccc32)C1=O` (stereo unspecified), with greater than 43.1 µg/mL.
For `CCCN(CCC)C(=O)c1cc2c(=O)[nH]c3ccc(C)cc3c2s1` the value was less than 0.4 µg/mL.
`CCOc1ccc(N2C(=O)CC(NCc3ccc(S(N)(=O)=O)cc3)C2=O)cc1` (stereo unspecified) showed a solubility (kinetic) of 48.7 µg/mL (≈ 121 µM).
Then `Cc1ccc(C(=O)NCC(=O)OCC(=O)NCC(F)(F)F)cc1`, with 47.1 µg/mL (≈ 142 µM); and `CNS(=O)(=O)c1cccc(C(=O)OC2CCOC2=O)c1` (stereo unspecified), with greater than 44.9 µg/mL.
On to `Cn1c(=O)c2cc3ccc(Cl)cc3nc2n(C)c1=O`, for which the kinetic solubility was 0.4 µg/mL (≈ 1.45 µM).
Then `Cc1ccc(S(N)(=O)=O)cc1NC(=O)/C=C/c1ccc2c(c1)OCO2`, with 2.1 µg/mL (≈ 5.83 µM).
For `CC(=O)c1ccc(Sc2ccccn2)c([N+](=O)[O-])c1` the value was 38 µg/mL (≈ 139 µM); for `Cc1ncc([N+](=O)[O-])n1Cc1ccccc1F`, greater than 35.3 µg/mL; for `O=C1C(=O)N(CCS(=O)(=O)c2ccccc2)c2ccccc21`, greater than 47.3 µg/mL.
In turn, `O=S(=O)(Cc1ccccc1)Cc1cnc(Cl)s1` registered a kinetic solubility greater than 43.2 µg/mL.
Then `COc1cc(C(=O)N2CCCN(C)CC2)cc(OC)c1C.Cl`, with greater than 49.3 µg/mL.
Then `O=C(O)c1ccccc1-c1cc2ccccc2[nH]1`, with 29.9 µg/mL (≈ 126 µM).
